| melting point [°C] | SMILES |
| --- | --- |
| 166 to 169 | Cc1cc(-c2nnn(C)n2)cc(C)c1OCCCC(O)c1cc2cccnc2[nH]1 (stereo unspecified) |
| 60 to 61 | CCOC(=O)c1ccc(/C=C(\C)c2ccc3c(c2)CCCCO3)cc1 |
| 237 | CCOC(=O)c1nc2scc(NC(=O)Cc3ccccc3)c2c(=O)[nH]1 |
| 188 to 189 | O=C(c1ccccc1)c1cccc2c(CC(C(=O)O)C(=O)O)c[nH]c12 |
| 153 to 155 | CC1Cc2cc(OCc3ccccc3)c(Cl)c(Cl)c2C1=O (stereo unspecified) |
| 102 to 104 | CC1(C)CCC(C)(C)c2cc(OCc3ccc(C=O)cc3)ccc21 |
| 328 | N#Cc1c(N2CCN(C(=O)c3ccco3)CC2)c2cc(Cl)cnc2n(CC(=O)c2ccccc2)c1=O |
| 131 to 132 | c1ccc(COc2cc(OCC3CCCCC3)ccc2CNc2ccncc2)cc1 |
| 170 to 172 | CCOC(=O)c1cc(C(=O)c2cccc(S(=O)(=O)F)c2)sc1N=Nc1ccc(O)c(N)n1 |
| 121 to 122 | CCCNc1c2ccccc2nc2c1c(C)nn2-c1ccccn1 |
| > 250 | CN(C)CCOc1ccc2[nH]c(C(=O)N3CC(CCl)c4c3cc(N)c3ccccc43)cc2c1 (stereo unspecified) |
| 166 to 168 | COc1cccc(Oc2cccc3c2C2(COc4cc5c(cc42)OCCO5)C(=O)N3C)c1 (stereo unspecified) |
| 84 to 85 | CCOC(=O)c1c(-c2ccccc2)nn2c1-c1ccccc1CC2 |
| 231 to 232 | COc1ccc(N)c(OC)c1-c1ccc(C[C@H](NC(=O)c2c(Cl)cccc2Cl)C(=O)O)cc1 |
| 100 | Cc1cccc(NC(=O)NCC(=O)N(c2ccccc2)C(C(=O)OC(C)(C)C)c2cccc(Cl)c2)c1 (racemic) |
| 289 | O=c1c(-c2ccc(F)cc2)coc2c(O)c(O)ccc12 |
| 157 to 161 | CC(C)(C)C(=O)C(C(c1ccc(Cl)cc1)n1cncn1)n1cncn1 (stereo unspecified) |
| 154 to 155 | COc1ccc(S(=O)(=O)Nc2cccnc2Nc2ccccc2O)cc1 |
| 73 to 83 | COc1ccc(COC(=O)c2nc(-c3ccc(Cl)c(OC)c3F)cc(N)c2Cl)cc1 |
| 124 to 126 | COC(=O)Cc1ccc(CNC(=O)C2Cc3ccccc3N2S(=O)(=O)c2ccc(-c3cccc(C(F)(F)F)c3)cc2)c(Cl)c1 (stereo unspecified) |
| 210 to 211 | Cn1ncnc1COc1nn2c(-c3ccccc3)nnc2cc1N1CCOCC1 |
| 173 to 175 | COc1ccc(C(=O)N2c3ccccc3C(Nc3ccc(Br)cc3)CC2C)cc1OC (stereo unspecified) |
| 197 to 199 | CCCNC(=O)N1CCc2cc(S(=O)(=O)N3CC(c4ccccc4)NC3=O)ccc21 (stereo unspecified) |
| 157 to 159 | Cn1c(SC(C(=O)O)c2ccccc2)nc2ccccc21 (stereo unspecified) |
| 52 to 54 | COC(=O)C(C)Oc1cc(C)ccc1COc1ccc(-n2c(=O)cc(C(F)(F)F)n(C)c2=O)cc1 (stereo unspecified) |
| 200 to 202 | COc1cccc(OC)c1CN1C(=O)C2CCCN2c2ncccc21 (stereo unspecified) |

| melting point [°C] | SMILES |
| --- | --- |
| 182 to 184 | CC(=O)CNC1(c2ccc(OC(C)=O)cc2)Sc2ccccc2N(C)C1=O (stereo unspecified) |
| 210 to 213 | CC(=O)SCCCn1cc(C2=C(c3cn(C)c4ccccc34)C(=O)NC2=O)c2ccccc21 |
| 72 to 75 | COc1ccc(-c2nccs2)cc1OC1CCCC1 |
| 105 to 106 | Cc1ccccc1CNCCc1ccc(NC(=N)c2cccs2)cc1 |
| 145 to 147 | CS(=O)(=O)c1ccc(-c2cccn2-c2ccc(F)cc2)cc1 |
| 110 to 112 | CCOC(=O)c1cc(OC(C)=O)c2c(OC)ccc(OC)c2c1 |
| 131 to 132 | CC(=O)N1CCc2c(cccc2NS(=O)(=O)c2ccccc2)C1 |
| 227 to 228 | COc1ccsc1S(=O)(=O)Nc1nc2c(OC)cnc(OC)n2n1 |
| 32 to 34 | CCCCCCCCCCOc1ccc(OCc2ccccc2)c(C(=O)OC)c1 |
| 61 to 62 | COC(=O)CCCc1ccc(C(=O)CCCc2ccccc2)cc1 |
| 139 to 145 | COc1cccc(NC(=O)c2cccs2)c1 |
| 95 to 97 | COc1ccc(-c2ccc3nnc(-c4ccccc4OC)n3n2)cc1OC |
| 79 to 80 | c1ccc(CSc2nc[nH]n2)cc1 |
| 168 to 170 | Cc1n[nH]c2c1C(=O)CC(c1ccccc1Cl)C2 (stereo unspecified) |
| 81 to 83 | COc1ccc(/C=C/c2cnccn2)cc1OC1CCCC1 |
| 229 to 231 | Cc1cc(N)c(S(N)(=O)=O)cc1-c1ccccn1 |
| 146 to 147 | CN1CCC(=O)C(C2c3ccccc3CCc3ccccc32)C1 (stereo unspecified) |
| 215 to 218 | CN1CCN(c2ccc(-c3nc4c(N[C@H]5[C@@H](C(N)=O)[C@@H]6C=C[C@H]5C6)c(Br)cnc4[nH]3)cc2)CC1 |
| 145 | Cc1nc2ccccn2c(=O)c1CCN1CCC2C(C1)c1ccccc1N2Cc1ccccc1 (stereo unspecified) |
| 98 to 99 | CCOC(=O)c1ccc(-c2nn(Cc3ccccc3)c3ccccc23)o1 |
| 198 | COc1ccc(S(=O)(=O)C(Nc2c(Br)cc(C)cc2C(=O)O)c2cccnc2)cc1 (stereo unspecified) |
| 110 | CC(C)(C)c1ccc(S(=O)(=O)N2c3ccccc3C[C@H]2C(=O)NCc2ccc(NCC(=O)O)cc2)cc1 |
| 60 to 62 | CCOC(=O)C(C)(C)Oc1ccc(OCCn2c(=O)sc3cc(C(=NO)c4ccccc4)ccc32)cc1 |
| 200 to 202 | Cc1cccc(C=NN2CCN(C3c4ccccc4C=C(C#N)c4ccccc43)CC2)n1 (stereo unspecified) |
| 204 to 205 | Nc1ccccc1Cn1[nH]c2ccccc2c1=O |

Further lines, the compound ahead of its results:

| SMILES | melting point [°C] |
| --- | --- |
| CCCC1CC(O)N(C(C)=O)C1(C(=O)OCC)C(=O)OCC (stereo unspecified) | 105 to 106 |
| CC(C)(C)c1cc(-c2csc(CN3CCOCC3)n2)cc(C(C)(C)C)c1O | 137 |
| CS(=O)(=O)OC(c1ccc(C(O)(C(F)(F)F)C(F)(F)F)cc1)(C(F)(F)F)C(F)(F)F | 160 |
| CCCCCCCCCC(O)P(=O)(O)O (stereo unspecified) | 164 |
| O=C(Cl)c1ccc(Cl)cc1[N+](=O)[O-] | 95 to 96 |
| C#CCn1c(=O)sc2cc(F)c(-n3c(OC)nc(C(F)(F)F)cc3=O)cc21 | 191 to 192 |
| CCOC(=O)C(=CNC1CC1)C(=O)c1c(C)c(F)c(F)c(F)c1F | 72 to 74 |
| CC1(C)C(=O)N(c2ccc(C#N)c(C(F)(F)F)c2)C(=O)N1CCCCO | 102 to 103 |
| O=C(O)c1cc(F)c(F)c(F)n1 | 81 to 82 |
| O=C1N(CCCCN2CCN(c3n[nH]c4ccccc34)CC2)CSC12CCCC2 | 166 to 168 |
| Cc1nc2n(C)nc(C)n2c(=O)c1CCO | 170 |
| N#Cc1ccc(C=O)cc1F | 83 |
| C#CCOc1ccc(OCC2OC2(C)C)cc1 (stereo unspecified) | 72 to 73 |
| CC1N=Cc2cc(Cl)ccc2-n2c(Cc3ccccc3)nnc21 (stereo unspecified) | 195 to 197 |
| CCOC(=O)C1=C2CCCN2C(C)=C(C(=O)OC)C1c1cccc([N+](=O)[O-])c1 (stereo unspecified) | 120 |
| COc1ccnc(Cl)c1C#N | 168 to 171 |
| Cc1c(C)c2c(c(C)c1NC(=O)NCCN(C)C)C(c1ccc(C(C)C)cc1)CO2 (stereo unspecified) | 133 to 134 |
| N#CCCNC(=O)c1n[nH]cc1NC(=O)c1ccccc1 | 186 to 187 |
| COC(=O)C(=Cc1ccc2c(c1)CCO2)N=[N+]=[N-] | 77 to 80 |
| Clc1nc(-c2ncccn2)nc(Cl)c1-c1cccs1 | 159 to 160 |
| CCOC(=O)c1sc(Cn2cc(Cl)cnc2=O)nc1C | 169 to 171 |
| COc1cccc(CC[C@H]2CNCCN2)c1 | 53 to 57 |
| Cc1nc[nH]c1CSCCN=C(NC#N)NCCCCCCCN | 84 to 87 |
| NCC(=O)Nc1cccc(C(N)=O)c1 | 139 to 140 |
| CCCCCCCN(CCN1CCN(CCSc2nc3cccc(C(=O)OC)c3o2)CC1)C(=O)Nc1c(C(C)C)cccc1C(C)C | 125 to 126 |

| SMILES | melting point [°C] |
| --- | --- |
| CCCCCCCCCCCCCCCCCCOc1cccc(NCC(=O)O)c1 | 92 |
| COC(=O)COc1cc2c(c(Cl)c1C)C(=O)C1(CCCC1)C2=O | 152 to 154 |
| CCN1CCC2(CC1)COc1cc3c(cc12)N(C(=O)c1ccc(-c2ccc(C(=O)NN)cc2C)cc1)CC3 | 222 to 225 |
| CCCN(C)C1CCc2c(cccc2NC(C)=O)C1 (stereo unspecified) | 78 |
| CC(C)(C)c1ccc2c(c1)C=C(/C=C/C=C/C=C/C(=O)O)CO2 | 200 to 202 |
| O=c1[nH]c(CCCl)c(Cl)c(=O)[nH]1 | 225 |
| CC1(c2cccs2)Cc2cc(O)c(Cl)c(Cl)c2C1=O (stereo unspecified) | 224 to 226 |
| CCOCc1nc2c(N)nc3cc(Br)ccc3c2n1CCCCNC(=O)NC(C)C | 211 |
| O=C(NCc1ccccc1)NC(Cc1ccccc1)C(=O)O (stereo unspecified) | 115 to 117 |
| CCOC(=O)/C=C1/CO[C@](C)([C@H]2CC[C@H]3[C@@H](O[Si](C)(C)C(C)(C)C)CCC[C@@]32C)C1 | 101 |
| N#Cc1ccc(CC(NC(=O)OCc2ccccc2)C(=O)Nc2cccc(C(=O)NCCC(=O)OCc3ccccc3)c2)cc1 (racemic) | 145 to 146 |
| CCCCCC(=O)c1ccc(O)c(C(=O)O)c1 | 48 to 49 |
| O=C1c2cc(CCCCOC(=O)C(F)(F)F)ccc2OCc2ccsc21 | 65.5 to 67 |
| Cc1c(C(F)(F)C(F)(F)F)oc2c(Br)cccc12 | 65 |
| CCCCNc1cc2c(cc1[N+](=O)[O-])OCO2 | 137 |
| NCCCc1cccnc1C(N)=O | 153 to 156 |
| C#Cc1[nH]c2cccc3c2c1CC1C3CC(NC(=O)N(CC)CC)CN1C (stereo unspecified) | 192 |
| CCOC(=O)c1cnc2n(c1=O)C(C)CCC2=NNC(=O)c1ccc2c(c1)OCO2 (stereo unspecified) | 183 to 185 |
| Cc1ccc(NCC2CCNCC2)c(C(=O)Nc2ccc(F)cn2)c1 | 147 to 149 |
| CC(C)CN1CCS(=O)(=O)c2sc(S(N)(=O)=O)cc2C1 | 149 to 151 |
| N#CCc1cccc2c(C3CCCC3)nccc12 | 99.4 to 100 |
| CN(C)C(=Nc1ccccc1N1CCOCC1)N1CCOCC1 | 126 to 128 |
| CCc1n[nH]c(CC)c1CCCCCCOc1ccc(Cl)cc1 | 130 to 132 |
| Cc1[nH]c2ccccc2c1C(=O)CCN(C)C | 172 to 175 |
| O=C(c1cccs1)C1C(=O)N(C(=O)NS(=O)(=O)Cl)c2ccc(Cl)cc21 (stereo unspecified) | 166 to 169 |

— a melting point compilation (Tetko et al.; mined from patent text by program, amines drawn as free bases though some values may be those of a salt)
